Here are results for one compound from publication PMC5543288, “Psychostimulant Effect of the Synthetic Cannabinoid JWH-018 and AKB48: Behavioral, Neurochemical, and Dopamine Transporter Scan Imaging Studies in Mice” (Frontiers in Psychiatry, 2017).

In one assay the test system is male CD-1 mice. Nature of the assay: Spontaneous locomotor activity (ANY-maze video tracking). Format: in vivo, mouse. The method, then: Drugs were administered by intraperitoneal injection in a volume of 4 μl/g. The used doses of JWH-018 (0.3 and 1 mg/kg i.p.) and AKB48 (0.3 and 1 mg/kg i.p.) were chosen based on previous studies ([6], [7], [9], [10]).
The spontaneous locomotor activity was measured by using the ANY-maze video tracking system (Ugo Basile, application version 4.99 g Beta). The mouse was placed in a square plastic cage (60 cm × 60 cm) located in a sound- and light-attenuated room and motor activity was monitored for 240 min. Four mice were monitored in parallel in each experiment. Parameters measured were distance traveled (meter), total time in the peripheral zone (seconds), total time in the central zone (seconds), and immobility time (seconds; the animal was considered immobile when 95% of his image remained in the same place for at least 2 s). Parameters were analyzed every 15 min for a maximum of 240 min and to avoid mice olfactory cues, cages were carefully cleaned with a dilute (5%) ethanol solution and washed with water between animal trials. All experiments were performed between 9:00 a.m. and 1:00 p.m.

For assay [1], the target named is T1, dopamine transporter (DAT) in the mouse striatum (Mus musculus, UniProt Q61327).
T1 construct: from tissue; host or cells: striatum of living CD-1 male mice (in vivo imaging)
Nature of the assay: In vivo DaTSCAN SPECT-CT imaging, striatal [123I]-FP-CIT binding. Conditions: i.p. 30 min before tracer: cocaine 20 mg/kg, amphetamine 10 mg/kg, JWH-018 1 mg/kg, AKB48 1 mg/kg.
Experimental: 18 CD-1 male mice were divided into six different groups (three mice per treatment). […] A control group (i.e., naïve untreated mice) was also included in the study. Thirty minutes after drug administration, all mice were submitted to an intravenous injection with a solution of [^123I]-DaTSCAN (15–20 MBq, ≤200 µl). The body temperature of the animals was maintained at 37°C during the imaging sessions and under the cage, between imaging sessions, using a heating lamp. The SPECT–CT whole-body images were acquired at 1 h and 30 min after [^123I]-FP-CIT injection, with the initial tomographic acquisition starting nearly 15 min after the injection. Each SPECT-CT whole-body acquisition consisted of one bed positions (36 mm), 60 min, 128 views over 360 ([35]). The used energy window is 119–219 keV and the images were reconstructed by using the iterative EM-ML algorithm, including the collimator response. CT images have been acquired, using the digital X-ray imaging system integrated into the YAP(S)PET scanner ([36]). Acquisition parameters for X-ray projections were X-ray tube voltage = 35 keV, anode current = 1 mA, exposure = 1 s, 64 views over 360, and magnification factor = 1.2. Subtraction of dark noise contribution and flat field corrections was accomplished to obtain final images. The CT data were reconstructed by using the FDK algorithm. Amide software ([37]) has been used for images’ registration, visualization and analysis. The size of the ROIs was voxels (100 mm^3 volume), corresponding to entire striatum. These ROIs were used as a template. To avoid the variability of the slice selection and to gain statistical power, the entire striatum volume for the analysis was used. The template was positioned manually (without changing the size and form of the ROIs) on the SPECT images with the backing of anatomical information from LONI MAP 2003 MRI mouse atlas ([38], [39]). For analysis of striatal [^123I]-FP-CIT binding, two consecutive horizontal slices (total thickness approximately 4 mm) with the highest striatal binding were selected. The landmarks for positioning were the intra-orbital glands, striatum, and the borders of the brain. Striatal binding ratios are expressed as average activity per unit volume [Bq/mm^3], each value has been calculated as the ratio between the activity inside the ROI and the ROI volume, normalized for injected activity and for mouse brain weight.

Assay [2] relates to DA release in the nucleus accumbens (NAc) shell. Nature of the assay: In vivo brain microdialysis, NAc shell extracellular DA. Further details: species or system mouse. As for the experimental part:
Male ICR (CD-1®) mice, 25–30 g (ENVIGO. Harlan Italy; S. Pietro al Natisone, Italy) were anesthetized with Isoflurane (3%; 200 ml/min) and implanted with vertical dialysis probe (1 mm dialyzing portion) prepared with AN69 fibers (Hospal Dasco, Bologna, Italy) in the NAc shell (A + 1.4, L 0.4 from bregma, V-4.8 from dura) according to the mouse brain atlas by Paxinos and Franklin ([40]). On the day following surgery, probes were perfused with Ringer’s solution (147 mM NaCl, 4 mM KCl, 2.2 mM CaCl2) at a constant rate of 1 µl/min. Dialyzate samples (10 µl) were injected into an HPLC equipped with a reverse phase column (C8 3.5 um, Waters, USA) and a coulometric detector (ESA, Coulochem II) to quantify DA. The first electrode of the detector was set at +130 mV (oxidation) and the second at −175 mV (reduction). The composition of the mobile phase was as follows: 50 mM NaH2PO4, 0.1 mM Na2-EDTA, 0.5 mM n-octyl sodium sulfate, 15% (v/v) methanol, pH 5.5. […] At the end of each experiment, animals were sacrificed and their brains removed and stored in formalin (8%) for histological examination to verify the correct placement of the microdialysis probe.

Assay [3] concerns spontaneous [3H]-DA efflux from mouse striatal synaptosomes. The assay can be described thus: Spontaneous [3H]-DA release from striatal synaptosomes. In kind it is biochemical. Conditions: amphetamine 10 µM, cocaine 100 nM, JWH-018 and AKB48 100 nM and 1 µM. As for the experimental part:
(§1) On the day of the experiment, the animal was euthanized, the brain was rapidly removed, and both striata isolated. Thereafter, a crude synaptosomal (P2) fraction was prepared as follows: the striata were suspended in ice-cold buffered sucrose solution (0.32 M, pH 7.4) and homogenized. The homogenate was centrifuged (10 min, 2,100 g, 4°C) to remove nuclei and debris. The supernatant was further centrifuged at 13,500 g for 20 min at 4°C. For [^3H]-WIN 35,428 binding experiments, the P2 pellet was resuspended in 50 mM Tris–HCl, 100 mM NaCl, pH 7.4. For [^3H]-DA release experiments, the P2 pellet was then resuspended in 5 ml of Kreb’s solution (mM: NaCl 118; KCl 4.4; CaCl2 1.2; MgSO4 1.2; KH2PO4 1.2; NaHCO3 25; glucose 10), gassed 20 min with a mixture of 95% O2 plus 5% CO2 containing [^3H]-DA (50 nM; Perkin Elmer, Monza, Italy), disodium EDTA (0.03 mM), and ascorbic acid (0.05 mM; to prevent [^3H]-DA degradation).
After synaptosomal preparation, 0.5 ml aliquots of the suspension were distributed on microporous filters placed at the bottom of a set of parallel superfusion chambers maintained at 37°C and perfused with aerated (95% O2/5% CO2) Kreb’s solution (0.3 ml/min). After 30 min of superfusion to equilibrate the system, 5-min fractions were collected from the 30th to the 75th min (nine samples). […] At the end of the experiment, the radioactivity of the samples and filters was determined by liquid scintillation spectrometry (LS1800 Beckman). In view of the results obtained, in a separate set of experiments, [^3H]-DA uptake was also evaluated.

In assay [4] the test system is [3H]-DA uptake in mouse striatal synaptosomes. The assay can be described thus: [3H]-DA uptake in striatal synaptosomes. In kind it is biochemical. Conditions: GBR 12783 20 nM; JWH-018 and AKB48 100 nM and 1 µM. As for the experimental part: as §1
After synaptosomal preparation, the suspension was maintained under a light and continuous oxygenation (95% O2, 5% CO2) for 20 min at 37°C. Thereafter, 0.5 ml aliquots of striatal synaptosomal suspension were prepared. […] After this period, the reaction was stopped by filtration through microporus nylon filters (0.45 µm, 13 mm; Analytical Technology, Brugherio, Italy). The filters were then washed with 1 ml ice-cold Kreb’s solution and the radioactivity accumulated on synaptosomes was extracted by eluting two times with 1 ml of warm NaOH (1 N) and then determined by liquid scintillation spectrometer. Non-specific uptake was measured by following the same procedure at 0°C.

For assay [5], the target named is CD-1 murine CB1 receptors. The conditions noted are these: ref [6]; read-out: Ki for CB1 receptors, CD-1 murine preparation; cited from earlier work.
Assay [6] deals with dopamine (DA) transmission in the NAc shell. Further details: method as in PMID 26327678. The conditions noted are these: 0.25 mg/kg i.p., not at 0.125 or 0.5 mg/kg i.p.; not in NAc core and mPFC; ref [9]; cited from earlier work.
For assay [7], the system named is GABAA-mediated post-synaptic currents in VTA DA neurons. Further details: method as in PMID 26686391, PMID 25232109, PMID 28373077. The conditions noted are these: rat VTA DA neurons, ex vivo; ref [26], [82], [83]; cited from earlier work.

T1 sequence (Q61327 whole entry): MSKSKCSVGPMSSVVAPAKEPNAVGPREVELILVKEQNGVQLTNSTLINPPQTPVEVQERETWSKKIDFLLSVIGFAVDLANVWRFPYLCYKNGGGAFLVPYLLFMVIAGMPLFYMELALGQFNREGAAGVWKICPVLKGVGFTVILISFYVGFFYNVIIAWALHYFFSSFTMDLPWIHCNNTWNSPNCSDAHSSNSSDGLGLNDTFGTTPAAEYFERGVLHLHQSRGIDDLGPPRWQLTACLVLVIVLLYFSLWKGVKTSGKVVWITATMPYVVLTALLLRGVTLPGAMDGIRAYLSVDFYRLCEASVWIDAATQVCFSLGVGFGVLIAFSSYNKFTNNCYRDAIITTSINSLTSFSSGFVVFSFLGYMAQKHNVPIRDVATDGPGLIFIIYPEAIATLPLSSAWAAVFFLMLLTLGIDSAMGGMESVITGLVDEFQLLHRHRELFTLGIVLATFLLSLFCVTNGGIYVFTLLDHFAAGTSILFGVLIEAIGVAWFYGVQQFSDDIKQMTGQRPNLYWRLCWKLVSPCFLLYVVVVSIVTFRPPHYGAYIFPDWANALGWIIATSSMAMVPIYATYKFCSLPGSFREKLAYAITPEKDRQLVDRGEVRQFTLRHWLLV

`CCCCCn1cc(C(=O)c2cccc3ccccc23)c2ccccc21` [JWH-018, 1-pentyl-3-(1-naphthoyl)indole]: the “facilitation of spontaneous locomotion after pretreatment with AM 251” value in the assay with male CD-1 mice (JWH-018 0.3 mg/kg, AKB48 1 mg/kg, AM 251 1 mg/kg i.p. 20 min before) is “prevented”. The “facilitation of spontaneous locomotion after coadministration of SCH23390 and haloperidol” value with male CD-1 mice (JWH-018 0.3 mg/kg, AKB48 1 mg/kg, SCH23390 0.1 mg/kg i.p. + haloperidol 0.05 mg/kg i.p. 20 min before) is on record as “prevented”. The “time in the central zone versus peripheral area of the cage” value in the assay with male CD-1 mice (acute i.p.: JWH-018 0.3 mg/kg, AKB48 1 mg/kg) is on record as “spent more time in the central zone”. Besides, the immobility time result in the assay with male CD-1 mice (acute i.p.: JWH-018 0.3 mg/kg, AKB48 1 mg/kg (30 min after administration), amphetamine 10 mg/kg, cocaine 20 mg/kg) is listed as “reduced the immobility time”. In addition, in the assay with male CD-1 mice (acute i.p.: JWH-018 0.3 mg/kg, AKB48 1 mg/kg, amphetamine 10 mg/kg, cocaine 20 mg/kg, monitored 240 min), the “total distance traveled (spontaneous locomotion)” value is recorded as “induced long-lasting increases”. In the assay with male CD-1 mice (acute i.p.: JWH-018 0.3 mg/kg, AKB48 1 mg/kg, cocaine 20 mg/kg), the “duration of the increase of spontaneous locomotion” value was 90 min. Besides, the “reduction of [123I]-FP-CIT binding in the striatum” value in assay [1] is reported as ~ 39%. Also, the “increase of NAc shell extracellular DA levels (maximal/peak)” value in assay [2] (JWH-018 0.3 mg/kg i.p. (long-lasting), AKB48 0.3 mg/kg i.p. (peak)) is reported as ~ 150 % of baseline values. Moreover, the “NAc shell extracellular DA levels” value in assay [2] (awake freely moving mice, i.p.: amphetamine 10 mg/kg, cocaine 20 mg/kg, JWH-018 0.3 mg/kg, AKB48 0.3 mg/kg) is “significantly increased”. In addition, in assay [3], the “spontaneous [3H]-DA efflux from striatal synaptosomes” value is recorded as “did not affect”. Further, in assay [4], the “effect on [3H]-DA uptake” value is listed as “ineffective”. Further, the Ki in assay [5] was 5.82 nM. The “dopamine (DA) transmission in the NAc shell” value in assay [6] was “increases”. Besides, the GABAA-mediated post-synaptic currents result in assay [7] was “decreases”.
